Test [1] concerns the target T1, PTP1β (human, recombinant) (Homo sapiens, UniProt P18031).
T1 construct: purchased BIOMOL International LP (Plymouth Meeting, PA)
T1 sequence (P18031 1-435): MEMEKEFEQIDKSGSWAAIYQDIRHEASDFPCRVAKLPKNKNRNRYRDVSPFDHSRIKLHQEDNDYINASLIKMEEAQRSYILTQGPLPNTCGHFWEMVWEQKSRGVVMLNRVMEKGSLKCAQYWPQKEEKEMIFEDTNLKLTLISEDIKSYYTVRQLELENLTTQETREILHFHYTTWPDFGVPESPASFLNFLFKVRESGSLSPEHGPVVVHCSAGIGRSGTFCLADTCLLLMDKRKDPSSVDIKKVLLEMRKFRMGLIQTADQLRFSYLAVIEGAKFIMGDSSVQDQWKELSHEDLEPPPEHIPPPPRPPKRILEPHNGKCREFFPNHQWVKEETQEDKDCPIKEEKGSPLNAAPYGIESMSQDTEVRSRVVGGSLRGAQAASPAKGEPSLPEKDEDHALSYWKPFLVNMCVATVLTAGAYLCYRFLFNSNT
The test can be described thus: PTP1β inhibitory activity assay (pNPP substrate). It is filed as biochemical. The following applies: for inhibition at 10 µg/mL: concentration 10 μg/mL; for inhibition at 50 µg/mL: concentration 50 μg/mL; for inhibition at 25 µg/mL: concentration 25 μg/mL. Here is the method: A PTP1β (human, recombinant) drug discovery kit was purchased from BIOMOL® International LP (Plymouth meeting, PA). Enzymatic activity was measured using pNPP, as described previously. To each of the 96-wells in a microtiter plate (final volume: 100 μL) was added 2 mM pNPP and PTP1β (0.05-0.1 ng/well) in a buffer containing 50 mM citrate (pH 6.0), 0.1 M sodium chloride, 1 mM EDTA, and 1 mM dithiothreitol, with or without test compounds. Following incubation at 37 °C for 30 min, the reaction was terminated with 10 M sodium hydroxide.
All calculations and analyses were performed using statistical analysis system (SAS, SAS Institude Inc., NC, USA, version 9.1) software and Sigma plot (Systat Software Inc., USA, version 11). Inhibition rates were calculated as percentages (%) with respect to the control value and IC50 value was estimated from the least-squares regression line of the logarithmic concentration plotted against inhibitory activity.

Test [2] concerns human recombinant aldose reductase. Further details: method as in PMID 23586057. The following applies: cited from earlier work.
Test [3] relates to rat lenses aldose reductase. Further details: method as in PMID 23586057. The following applies: cited from earlier work.
In test [4] the target is T1, PTP1β (human, recombinant). The experiment in a line: Kinetics of PTP1β inhibition (Lineweaver-Burk plots, pNPP substrate). It is filed as biochemical. Further details: dose or concentration left out as unconfirmed. Here is the method:
[…] The initial rate was determined on the basis of the rate of increase in absorbance at 405 nm. The Michaelis-Menten constant (Km) and maximal velocity (Vmax) of PTP1β were determined by Lineweaver-Burk Plot analysis for competitive inhibition, and the intercept on the vertical axis for noncompetitive inhibition.
A kinetic analysis of PTP1β inhibition by compounds 7 and 11 using Lineweaver-Burk plots of 1/velocity and 1/concentration of substrate is shown in Fig. 2. […] However, compound 7 yielded a noncompetitive inhibition pattern against PTP1β. […] These compounds may be potential lead compounds for further development as a functional food source for the prevention of diabetes.

Setting [5] is: Table 2, concentration 100 μg/mL, read-out: Inhibition (%).
The mark [6] stands for this setting: Table 2, isolated compounds, mean of 3 duplication analyses, read-out: IC50 (μg/ml) (converted).
The mark [7] stands for this setting: isolated compounds, read-out: IC50.

Data on 12 molecules can be found in paper PMC5000470, “Optimization of extraction parameters of PTP1β (protein tyrosine phosphatase 1β), inhibitory polyphenols, and anthocyanins from Zea mays L. using response surface methodology (RSM)” (BMC Complementary and Alternative Medicine, 2016).

Structures are written as SMILES. Where two headings read alike, the source gives them in different places.

`Cc1ccc(C(=O)Nc2ccc(S(=O)(=O)O)c3cc(S(=O)(=O)O)cc(S(=O)(=O)O)c23)cc1NC(=O)c1cccc(NC(=O)Nc2cccc(C(=O)Nc3cc(C(=O)Nc4ccc(S(=O)(=O)O)c5cc(S(=O)(=O)O)cc(S(=O)(=O)O)c45)ccc3C)c2)c1` [Suramin, suramin, reference compound]: the inhibition at 3.21 µg/mL in test [1] (Table 1, concentration 3.21 μg/mL) was 10.7%. Further, the inhibition at 6.49 µg/mL in test [1] (Table 1, concentration 6.49 μg/mL) came to 40.6%. For the same molecule, in test [1] (Table 1, concentration 12.97 μg/mL), the inhibition at 12.97 µg/mL is 61.9%. Also, the inhibition at 1 µg/mL in test [1] (Table 2, concentration 1 μg/mL) was 10.7%. In addition, in test [1] (Table 2, concentration 2.5 μg/mL), the inhibition at 2.5 µg/mL worked out at 46.5%. Further, in test [1] (Table 2, concentration 5 μg/mL), the inhibition at 5 µg/mL is 64.3%.
In the case of `O=C(O)c1ccc(O)c(O)c1` [compound 1, protocatechuic acid], in test [1], the inhibition at 100 µg/mL is < 50%.
Consider `COc1cc(C(=O)O)ccc1O` [compound 2, vanillic acid], for which the inhibition at 100 µg/mL in test [1] (setting [5]) was < 50%.
Consider `O=C(O)c1c(O)cc(O)cc1O` [compound 3, 2,4,6-trihydroxy benzoic acid], for which, in test [1] (setting [5]), the inhibition at 100 µg/mL was < 50%.
With `O=C(O)/C=C/c1ccc(O)cc1` [compound 4, p-4-hydroxycinnamic acid], the inhibition at 100 µg/mL in test [1] (setting [5]) is < 50%.
As for `COc1cc(/C=C/C(=O)O)ccc1O` [compound 5, ferulic acid], the IC50 in test [1] (setting [6]) and in test [1] (setting [7]) was 185 µM in each case. For the same molecule, in test [1] (Table 2), the inhibition at 10 µg/mL stood at 28.3%. Besides, the inhibition at 50 µg/mL in test [1] (Table 2) worked out at 64.5%. Besides, the inhibition at 100 µg/mL in test [1] (setting [5]) stood at 96.1%.
Regarding `O=c1c(O[C@@H]2O[C@H](CO)[C@@H](O)[C@H](O)[C@H]2O)c(-c2ccc(O)c(O)c2)oc2cc(O)cc(O)c12` [compound 6, hirsutrin], the “inhibitory activity on human recombinant aldose reductase” value in test [2] is listed as “significant inhibitory activities”. Besides, the “inhibitory activity on rat lenses aldose reductase” value in test [3] is recorded as “significant inhibitory activities”. In test [1] (setting [5]), the inhibition at 100 µg/mL was < 50%.
On to `COc1cc(-c2oc3cc(O)cc(O)c3c(=O)c2O[C@@H]2O[C@H](CO)[C@@H](O)[C@H](O)[C@H]2O)ccc1O` [compound 7, 3′-methoxyhirsutrin], for which the “type of inhibition of PTP1β” value in test [4] was “noncompetitive”. Further, the “inhibitory activity on human recombinant aldose reductase” value in test [2] is “significant inhibitory activities”. Further, the “inhibitory activity on rat lenses aldose reductase” value in test [3] is reported as “significant inhibitory activities”. In addition, the IC50 in test [1] (setting [6]) is 64 µM. Also, in test [1] (Table 2), the inhibition at 10 µg/mL was determined as 15%, the inhibition at 25 µg/mL was 36.8% and the inhibition at 50 µg/mL amounted to 85.9%. The IC50 in test [1] (setting [7]) was found to be 64 µM.
Consider `OC[C@H]1O[C@@H](Oc2cc3c(O)cc(O)cc3[o+]c2-c2ccc(O)c(O)c2)[C@H](O)[C@@H](O)[C@@H]1O` [compound 8, cyanidin-3-glucoside], for which, in test [1] (setting [5]), the inhibition at 100 µg/mL is < 50%.
As for `OC[C@H]1O[C@@H](Oc2cc3c(O)cc(O)cc3[o+]c2-c2ccc(O)cc2)[C@H](O)[C@@H](O)[C@@H]1O` [compound 9, pelargonidin-3-glucoside], in test [1] (setting [6]), the IC50 was 211 µM. In test [1] (Table 2), the inhibition at 10 µg/mL was determined as 1.09% and the inhibition at 50 µg/mL was determined as 13.3%. In addition, the inhibition at 100 µg/mL in test [1] (setting [5]) was 55%. Moreover, in test [1] (setting [7]), the IC50 was 211 µM.
As for `COc1cc(-c2[o+]c3cc(O)cc(O)c3cc2O[C@@H]2O[C@H](CO)[C@@H](O)[C@H](O)[C@H]2O)ccc1O` [compound 10, peonidin-3-glucoside], the inhibition at 100 µg/mL in test [1] (setting [5]) is < 50%.
For the molecule `O=C(O)CC(=O)OC[C@H]1O[C@@H](Oc2cc3c(O)cc(O)cc3[o+]c2-c2ccc(O)c(O)c2)[C@H](O)[C@@H](O)[C@@H]1O` [compound 11, cyanidin-3-(6”-malonylglucoside)], in test [4], the “type of inhibition of PTP1β” value is reported as “mixed”. In test [2], the “inhibitory activity on human recombinant aldose reductase” value was “significant inhibitory activities”. Moreover, the “inhibitory activity on rat lenses aldose reductase” value in test [3] was “significant inhibitory activities”. Besides, the IC50 in test [1] (setting [6]) was 54.1 µM. Also, in test [1] (Table 2), the inhibition at 10 µg/mL was 18.5%, the inhibition at 25 µg/mL was 36.2% and the inhibition at 50 µg/mL stood at 91.7%. Also, the IC50 in test [1] (setting [7]) was found to be 54.1 µM.
